Laboratory results reported in publication PMC8540349, “GOBP1 from the Variegated Cutworm Peridroma saucia (Hübner) (Lepidoptera: Noctuidae) Displays High Binding Affinities to the Behavioral Attractant (Z)-3-Hexenyl acetate” (Insects, 2021).
“Also recorded” adds a separate entry of the source.

What follows are compounds tested against recombinant PsauGOBP1 (assay: Fluorescence competitive-binding assay with 1-NPN as probe). Settings: 1-NPN displacement, Tris-HCl pH 7.4, 25 °C; mean ± SE, three experiments; read-out: IC50 (concentration of ligand halving the initial fluorescence value).
Design: species or system Peridroma saucia
Procedure: (§1) Emission fluorescence spectra were recorded on a Hitachi F-4500 at 25 °C, with a 1 cm light path quartz cuvette and 5 nm slits for both excitation and emission. The protein was dissolved in 50 mM Tris-HCl buffer, pH 7.4, and ligands were added as 1 mM methanol solutions. To measure the affinity of the fluorescent ligand N-phenyl-1-naphthylamine (1-NPN) to PsauGOBP1, a […] solution of the protein in 50 mM Tris-HCl, pH 7.4, was titrated with aliquots of 1 mM ligand in methanol to a final concentration of 16 µM. The probe was excited at 337 nm, and emission spectra were recorded between 380 and 450 nm. To analyze the binding affinity of other ligands to PsauGOBP1, a panel of 34 compounds including moth sex pheromones and host plant volatiles were used in the competitive-binding assay. A solution of the protein and 1-NPN, both at the concentration of […], was titrated with 1 mM methanol solutions of each competitor at a concentration of 12 (sex pheromones) or 16 µM (host plant volatiles).
The dissociation constant for 1-NPN and the stoichiometry of binding were obtained by processing the data with GraphPad Prism 6. Dissociation constants of the competitors were calculated from the corresponding IC50 values (concentrations of ligands that reduced the initial fluorescence value of 1-NPN by 50%), using the following equation: KD = [IC50]/1 + [1-NPN]/K1-NPN, where [1-NPN] is the free concentration of 1-NPN, and K1-NPN is the dissociation constant of the protein/1-NPN complex.

Row | IC50 | Compound
1 | 11.5 ± 1 µM | CC(C)=CCCC(C)=CC=O (mixture of isomers) [Citral]
2 | > 20 µM | CCC/C=C/CO [(E)-2-hexen-1-ol]
3 | > 20 µM | CCC/C=C/COC(C)=O [(E)-2-hexenyl acetate]
4 | > 20 µM | C=CC(=C)CC/C=C(\C)CCC=C(C)C [(E)-β-farnesene]
5 | 17.4 ± 1.5 µM | CC/C=C\CCO [(Z)-3-hexen-1-ol]
6 | 8.2 ± 0.2 µM | CC/C=C\CCOC(C)=O [(Z)-3-hexenyl acetate]
7 | > 20 µM | CC/C=C\CC1=C(C)CCC1=O [(Z)-jasmone]
8 | > 20 µM | C=C(C)[C@H]1CC=C(C)CC1 [D-limonene]
9 | > 20 µM | CCCCCCCCCC=O [Decanal]
10 | > 20 µM | CCCCCCCCCCCCO [Dodecanol]
11 | > 20 µM | CCCCCCCO [Heptanol]
12 | > 20 µM | CC/C=C\C[C@H]1C(=O)CC[C@@H]1CC(=O)O [Jasmonic acid]
13 | > 20 µM | C=CC(C)(O)CCC=C(C)C (stereo not drawn) [Linalool]
14 | > 20 µM | CC/C=C\CC1C(=O)CCC1CC(=O)OC (stereo not drawn) [Methyl jasmonate]
15 | > 20 µM | COC(=O)c1ccccc1O [Methyl salicylate]
16 | 13.9 ± 0.6 µM | CCCCCCCCC=O [Nonanal]
17 | > 20 µM | C=CC(C)=CCC=C(C)C [Ocimene]
18 | > 20 µM | CCCCCCCC=O [Octanal]
19 | > 20 µM | CC(=O)OCCc1ccccc1 [Phenylethyl acetate]
20 | > 20 µM | CCCC/C=C\CCCCCCOC(C)=O [Z7-12: Ac]
21 | > 20 µM | CC/C=C\CCCCCCCCOC(C)=O [Z9-12: Ac]
22 | > 20 µM | CCCC/C=C\CCCCCCCCOC(C)=O [Z9-14: Ac]
23 | > 20 µM | CCCCCC/C=C\CCCCCCCC=O [Z9-16: Ald]
24 | > 20 µM | CCCCCC/C=C\CCCCCCCCO [Z9-16: OH]
25 | > 20 µM | CCCC/C=C\CCCCCCCCCCOC(C)=O [Z11-16: Ac]
26 | > 20 µM | CCCC/C=C\CCCCCCCCCC=O [Z11-16: Ald]
27 | > 20 µM | CCCC/C=C\CCCCCCCCCCO [Z11-16: OH]
28 | > 20 µM | C=CC(=C)CCC=C(C)C [β-myrcene]
29 | > 20 µM | C=C1CCC2CC1C2(C)C (stereo not drawn) [β-pinene]

Row | Compound | IC50
30 | CCC/C=C/C=O [(E)-2-hexenal] | > 20 µM
31 | C=C1CC/C=C(\C)CC[C@@H]2[C@@H]1CC2(C)C [(E)-caryophyllene] | > 20 µM
32 | O=Cc1ccccc1 [Benzaldehyde] | 19.3 ± 1.1 µM
33 | CC(C)=CCC/C(C)=C/CC/C(C)=C/CO [Farnesol] | 13.1 ± 1.2 µM
34 | c1ccc2[nH]ccc2c1 [Indole] | > 20 µM

Same assay, conditions: calculated from IC50 with KD = [IC50]/1 + [1-NPN]/K1-NPN; mean ± SE; read-out: KD (calculated dissociation constant)

Row | Kd | Compound
35 | 5.6 ± 0.4 µM | CC(C)=CCCC(C)=CC=O (mixture of isomers) [Citral]
36 | 8.5 ± 0.6 µM | CC/C=C\CCO [(Z)-3-hexen-1-ol]
37 | 4 ± 0.1 µM | CC/C=C\CCOC(C)=O [(Z)-3-hexenyl acetate]
38 | 6.8 ± 0.3 µM | CCCCCCCCC=O [Nonanal]

Row | Compound | Kd
39 | O=Cc1ccccc1 [Benzaldehyde] | 9.4 ± 0.5 µM
40 | CC(C)=CCC/C(C)=C/CC/C(C)=C/CO [Farnesol] | 6.4 ± 0.6 µM

Same assay, conditions: host plant volatiles; maximum concentration 16 (µM); remaining 1-NPN fluorescence; mean ± SE, three experiments

Row | Fluorescence (%) at Maximum Concentration | Compound
41 | 40 ± 3% | CC(C)=CCCC(C)=CC=O (mixture of isomers) [Citral]
42 | 67 ± 2% | CCC/C=C/CO [(E)-2-hexen-1-ol]
43 | 77 ± 7% | CCC/C=C/COC(C)=O [(E)-2-hexenyl acetate]
44 | 87 ± 4% | C=CC(=C)CC/C=C(\C)CCC=C(C)C [(E)-β-farnesene]
45 | 58 ± 3% | CC/C=C\CCO [(Z)-3-hexen-1-ol]
46 | 19 ± 2% | CC/C=C\CCOC(C)=O [(Z)-3-hexenyl acetate]
47 | 83 ± 5% | CC/C=C\CC1=C(C)CCC1=O [(Z)-jasmone]
48 | 100 ± 5% | C=C(C)[C@H]1CC=C(C)CC1 [D-limonene]
49 | 85 ± 2% | CCCCCCCCCC=O [Decanal]
50 | 75 ± 8% | CCCCCCCCCCCCO [Dodecanol]
51 | 65 ± 4% | CCCCCCCO [Heptanol]
52 | 68 ± 3% | CC/C=C\C[C@H]1C(=O)CC[C@@H]1CC(=O)O [Jasmonic acid]
53 | 79 ± 2% | C=CC(C)(O)CCC=C(C)C (stereo not drawn) [Linalool]
54 | 80 ± 5% | CC/C=C\CC1C(=O)CCC1CC(=O)OC (stereo not drawn) [Methyl jasmonate]
55 | 73 ± 3% | COC(=O)c1ccccc1O [Methyl salicylate]
56 | 50 ± 2% | CCCCCCCCC=O [Nonanal]
57 | 74 ± 7% | C=CC(C)=CCC=C(C)C [Ocimene]
58 | 61 ± 6% | CCCCCCCC=O [Octanal]
59 | 64 ± 2% | CC(=O)OCCc1ccccc1 [Phenylethyl acetate]
60 | 94 ± 1% | C=CC(=C)CCC=C(C)C [β-myrcene]
61 | 100 ± 2% | C=C1CCC2CC1C2(C)C (stereo not drawn) [β-pinene]

Row | Compound | Fluorescence (%) at Maximum Concentration
62 | CCC/C=C/C=O [(E)-2-hexenal] | 64 ± 4%
63 | C=C1CC/C=C(\C)CC[C@@H]2[C@@H]1CC2(C)C [(E)-caryophyllene] | 75 ± 1%
64 | O=Cc1ccccc1 [Benzaldehyde] | 62 ± 2%
65 | CC(C)=CCC/C(C)=C/CC/C(C)=C/CO [Farnesol] | 47 ± 4%
66 | c1ccc2[nH]ccc2c1 [Indole] | 70 ± 9%

Same assay, conditions: sex pheromones; maximum concentration 12 (µM); remaining 1-NPN fluorescence; mean ± SE, three experiments

Row | Fluorescence (%) at Maximum Concentration | Compound
67 | 74 ± 4% | CCCC/C=C\CCCCCCOC(C)=O [Z7-12: Ac]
68 | 72 ± 2% | CC/C=C\CCCCCCCCOC(C)=O [Z9-12: Ac]
69 | 78 ± 2% | CCCC/C=C\CCCCCCCCOC(C)=O [Z9-14: Ac]
70 | 82 ± 3% | CCCCCC/C=C\CCCCCCCC=O [Z9-16: Ald]
71 | 76 ± 1% | CCCCCC/C=C\CCCCCCCCO [Z9-16: OH]
72 | 70 ± 2% | CCCC/C=C\CCCCCCCCCCOC(C)=O [Z11-16: Ac]
73 | 89 ± 1% | CCCC/C=C\CCCCCCCCCC=O [Z11-16: Ald]
74 | 70 ± 5% | CCCC/C=C\CCCCCCCCCCO [Z11-16: OH]

Each compound was assayed on P. saucia antennae (assay: Electroantennogram (EAG) recording). Settings: dose 100 µg, two- to three-day-old males and females, versus paraffin oil control, n = 20.
Design: species or system Peridroma saucia
Procedure: Individual synthetic nonanal, citral, farnesol, benzaldehyde, (Z)-3-hexenyl acetate, and (Z)-3-hexen-1-ol was diluted with paraffin oil to make each solution of 10 μg/μL. Each solution was added onto a filter paper (0.2 × 1 cm), and the final loading capacity doses of each solution were 100 μg. A 10 μL volume of paraffin oil was used as the control. Two- to three-day-old male and female P. saucia were used to obtain EAG recordings for the six volatiles. As described by Sun et al. with modification, the antennae were cut from the head and used for electro-signal recordings. After a few segments of the tip were cut off, the antenna was glued to the antenna holder (using conductive gel, Spectra 360, Parker Lab, NJ, USA), and the antenna holder was inserted into the EAG probe. The EAG signal was first amplified with a DC/AC preamplifier (Syntech UN-06), and was further processed with Autospike software (Syntech, Hilversum, the Netherlands).
The EAG data were analyzed using GraphPad Prism 6. The level of significance was set at p < 0.05. Unpaired Student’s t-tests were used to compare the EAG responses of male vs. female P. saucia. For comparison of responses to the six volatiles, the EAG data were first subjected to a one-way ANOVA; this was done separately for males and females. If the ANOVA was significant, means were compared with Tukey’s multiple comparison test.

Row | Compound | EAG response of male and female antennae
75 | CC(C)=CCCC(C)=CC=O (mixture of isomers) [Citral] | weak EAG responses and weak
76 | CC/C=C\CCO [(Z)-3-hexen-1-ol] | strong responses; also recorded: relatively strong
77 | CC/C=C\CCOC(C)=O [(Z)-3-hexenyl acetate] | strongest responses; also recorded: strongest EAG response; also recorded: strong responses
78 | O=Cc1ccccc1 [Benzaldehyde] | strong responses; also recorded: relatively strong
79 | CC(C)=CCC/C(C)=C/CC/C(C)=C/CO [Farnesol] | weak EAG responses and weak
80 | CCCCCCCCC=O [Nonanal] | weak EAG responses and weak

Each compound was assayed on adult P. saucia (assay: Y-tube olfactometer behavioral bioassay). Settings: females; 10 µL of 10 µg/µL in paraffin oil versus paraffin oil; Y-tube.
Assay type: in vivo, Peridroma saucia
Procedure: A Y-tube olfactometer was used to assess the behavioral responses of male and female P. saucia to (Z)-3-hexenyl acetate as described by Yan and Wang with modifications. In brief, the system consisted of a central tube (20 cm long, 6 cm diameter) and two lateral arms (35 cm long, 6 cm diameter). (Z)-3-hexenyl acetate was dissolved in paraffin oil to obtain 10 µg/µL solutions. Filter paper (1 × 2 cm) with 10 µL of sample or 10 µL of paraffin oil was placed in a 250 mL flask. During the test, the room temperature was kept at 24 ± 2 °C with 70% ± 5% humidity and 0.6 lux of red light. […] Moths that moved more than half way along one of the lateral arms and remained for at least 5 s were recorded as having made a choice for the odor offered through that arm. After five individuals were tested, the olfactometer was turned and the flasks were switched in order to avoid positional effects. Tested compounds and paraffin oil were renewed every 5–10 min. The olfactometer and the flask were cleaned with water, ethanol, and acetone at the end of each day.
Chi-squared analyses were performed to determine whether the numbers of P. saucia that made a choice differed between the two odor sources (a 50:50 probability was set for the percentage of moths selecting the control and the test sides. The moths that made no choice were not included in the statistical analysis).

Row | Compound | percentage of females showing chemotaxis to the compound
81 | CC/C=C\CCOC(C)=O [(Z)-3-hexenyl acetate] | 68%

Same assay, conditions: males and females; choice versus paraffin oil; chi-squared test

Row | Compound | behavioral response (attraction) of both sexes
82 | CC/C=C\CCOC(C)=O [(Z)-3-hexenyl acetate] | attractive; also recorded: attracted; also recorded: significant attraction

Same assay, conditions: males; 10 µL of 10 µg/µL in paraffin oil versus paraffin oil; Y-tube

Row | Compound | percentage of males showing chemotaxis to the compound
83 | CC/C=C\CCOC(C)=O [(Z)-3-hexenyl acetate] | 64%

These compounds were tested against recombinant PsauGOBP1 (assay: Affinity of fluorescent probe 1-NPN to PsauGOBP1 (direct titration)). Settings: direct titration 2–16 µM 1-NPN, excitation 337 nm; single binding site; means of three replicates; read-out: dissociation constant of 1-NPN.
Design: species or system Peridroma saucia
Procedure: as §1
The dissociation constant for 1-NPN and the stoichiometry of binding were obtained by processing the data with GraphPad Prism 6. […]

Row | Compound | Kd
84 | c1ccc(Nc2cccc3ccccc23)cc1 [1-NPN, N-phenyl-1-naphthylamine] | 1.9 µM
